Measured values published in US12203103B2, “Selection marker for cell transfection and protein production” (Sanofi, priority 2014, dated 2025).

Columns and labels:
[1] = tested on: CHO 9E4 cells; assay: Preliminary culture of CHO 9E4 cells with leflunomide; type: cell-based, Chinese hamster; conditions: leflunomide at 50 and 100 μM; preliminary experiments
Description: This obtained 27 wells with growing cells. Of these 27, 4 produced low but significant amount 13C3 antibody. However production was unstable and the efficiency was low below 0.1%. These experiments served as proof of principle that DHODH can be used as a selectable marker for recombinant protein production, so further experiments were performed.

[2] = tested on: CHO 9E4 cell line; assay: Selection of stably transfected CHO 9E4 cells with leflunomide or teriflunomide as selection agent; type: cell-based, Chinese hamster; conditions: for Antibody: Less than 10 μg/ml (number of wells) / Antibody: More than 10 μg/ml (number of wells) / % of Occupied / % of Producers / Occupied (number of wells): Teriflunomide 50 μM; for % of Occupied / % of Producers / Occupied (number of wells): 480 wells tested; for Occupied (number of wells): growing clones after 15 to 20 days
From the text: The CHO 9E4 cell line was transfected with two different plasmids bearing the cDNA encoding human DHODH cDNA and the genetic material for production of anti CD38 or 13C3 antibodies (vectors pBH4952 and pBH4967). As a control vector for selection, the plasmid bearing a cDNA encoding human GS cDNA instead of DHODH (pBH3695) was transfected using into CHO 9E4 cell lines. The genetic material was transfected using standard electroporation techniques.
Twenty four hours post transfection, the selection process was started. […] The control vector was equally transfected and submitted to the same selection process.
In each case, 480 wells were seeded with 2000 cells/well.

[3] = tested on: CHO 9E4 cells; conditions: MSX 25 μM; 13C3; 960 wells tested; growing clones after 15 to 20 days

Compound: Cc1oncc1C(=O)Nc1ccc(C(F)(F)F)cc1 [leflunomide, 5-methyl-N-[4-(trifluoromethyl)phenyl]-isoxazole-4-carboxamide]
- effect on CHO 9E4 cell growth [1]: did not kill the cells but inhibited growth
- antibody in supernatants of the 480 wells ([2]; leflunomide 50 and 100 μM): none of the supernatants showed detectable amount of antibodies
- wells displaying growing clones ([2]; leflunomide 50 and 100 μM, DHODH from human or hamster origin, after 20 days): all the wells were displaying growing clones

Compound: CS(=N)(=O)CC[C@H](N)C(=O)O (stereo partly drawn) [MSX, L-methionine sulfoximine]
- Occupied (number of wells) [3]: 46

Compound: C/C(O)=C(\C#N)C(=O)Nc1ccc(C(F)(F)F)cc1 [teriflunomide, (2Z)-2-cyano-3-hydroxy-N-[4-(trifluoromethyl)phenyl]but-2-enamide]
- Antibody: Less than 10 μg/ml (number of wells) ([2]; 13C3): 24
- Antibody: More than 10 μg/ml (number of wells) ([2]; 13C3): 14
- % of Occupied ([2]; 13C3): 8%
- % of Producers ([2]; 13C3): 3%
- Occupied (number of wells) ([2]; 13C3): 38
- Antibody: Less than 10 μg/ml (number of wells) ([2]; anti-CD38): 29
- Antibody: More than 10 μg/ml (number of wells) ([2]; anti-CD38): 19
- % of Occupied ([2]; anti-CD38): 10%
- % of Producers ([2]; anti-CD38): 4%
- Occupied (number of wells) ([2]; anti-CD38): 48
- growth of cells transfected with control vector ([2]; control vector pBH3695 (human GS), 50 and 100 μM teriflunomide, even after 25 days, 480 wells): no growth was observed in any of the wells
- wells with growing cells ([2]; teriflunomide-selected, human DHODH vectors pBH4967 and pBH4952, two weeks later): 8-10%
- growth of cells transfected with hamster DHODH vectors ([2]; teriflunomide-selected, vectors pBH4940 and pBH4939): no growth was observed in any of the wells
